In article PMC6312236, “Functional characterization reveals that zebrafish CFTR prefers to occupy closed channel conformations” (PLoS ONE, 2018):

Legend:
Experiment in all cases: inside-out patch clamp, macroscopic current
Format in all cases: biochemical
[1] = target: T1, WT-zCFTR (codon optimized zebrafish CFTR) (Danio rerio, UniProt Q1LX78); settings: 10 μM inhibitor, PKA-phosphorylated channel, pH 7.4, 22-24 °C
T1 construct: full-length wild type, codon-optimized cDNA (from J. Chen), co-transfected with peGFP-C3 in CHO cells; PKA-phosphorylated in patches
T1 sequence (Q1LX78 1-1485): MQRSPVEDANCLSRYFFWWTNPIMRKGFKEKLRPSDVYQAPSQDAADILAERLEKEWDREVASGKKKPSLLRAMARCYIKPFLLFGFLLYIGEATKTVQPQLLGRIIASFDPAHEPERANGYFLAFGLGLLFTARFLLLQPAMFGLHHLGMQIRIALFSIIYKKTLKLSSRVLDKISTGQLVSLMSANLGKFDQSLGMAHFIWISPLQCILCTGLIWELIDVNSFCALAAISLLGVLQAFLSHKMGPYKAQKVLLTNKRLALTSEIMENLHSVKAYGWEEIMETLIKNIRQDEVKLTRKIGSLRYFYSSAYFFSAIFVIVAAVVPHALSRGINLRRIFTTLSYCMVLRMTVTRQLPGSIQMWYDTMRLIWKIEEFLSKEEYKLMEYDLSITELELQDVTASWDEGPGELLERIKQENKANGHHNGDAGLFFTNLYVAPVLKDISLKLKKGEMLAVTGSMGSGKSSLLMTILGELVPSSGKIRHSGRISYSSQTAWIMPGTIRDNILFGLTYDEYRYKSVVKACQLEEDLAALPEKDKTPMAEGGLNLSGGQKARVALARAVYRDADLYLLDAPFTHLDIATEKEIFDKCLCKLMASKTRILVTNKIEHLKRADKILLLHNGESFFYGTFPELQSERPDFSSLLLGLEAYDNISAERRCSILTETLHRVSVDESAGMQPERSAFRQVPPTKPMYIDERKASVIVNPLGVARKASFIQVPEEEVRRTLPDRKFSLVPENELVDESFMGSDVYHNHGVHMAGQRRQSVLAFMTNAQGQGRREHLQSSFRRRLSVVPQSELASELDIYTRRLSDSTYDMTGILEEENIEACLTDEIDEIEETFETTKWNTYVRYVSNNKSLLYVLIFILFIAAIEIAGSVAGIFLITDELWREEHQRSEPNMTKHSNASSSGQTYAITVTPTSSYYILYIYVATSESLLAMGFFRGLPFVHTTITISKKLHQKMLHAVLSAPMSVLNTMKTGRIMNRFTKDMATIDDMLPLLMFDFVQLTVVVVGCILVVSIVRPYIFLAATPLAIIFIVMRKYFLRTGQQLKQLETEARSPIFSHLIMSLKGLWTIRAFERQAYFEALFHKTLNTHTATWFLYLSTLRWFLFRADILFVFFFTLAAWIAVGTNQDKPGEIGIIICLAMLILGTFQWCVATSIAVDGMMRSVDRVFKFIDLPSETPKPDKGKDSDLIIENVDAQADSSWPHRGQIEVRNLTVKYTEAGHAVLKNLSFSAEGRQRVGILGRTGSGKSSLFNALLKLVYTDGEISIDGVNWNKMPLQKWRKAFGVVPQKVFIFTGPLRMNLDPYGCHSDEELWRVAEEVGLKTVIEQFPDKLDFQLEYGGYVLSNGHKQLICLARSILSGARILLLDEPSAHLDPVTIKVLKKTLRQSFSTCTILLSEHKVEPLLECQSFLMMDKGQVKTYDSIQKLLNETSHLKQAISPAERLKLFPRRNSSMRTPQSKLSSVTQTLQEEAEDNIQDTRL

[2] = target: T2, WT-nzCFTR (native form of zebrafish CFTR) (Danio rerio, UniProt Q1LX78); settings: 10 μM inhibitor, PKA-phosphorylated channel, pH 7.4, 22-24 °C
T2 construct: full-length wild type, native (not codon-optimized) cDNA from M. Bagnat lab, co-transfected with peGFP-C3 in CHO cells; PKA-phosphorylated in patches
T2 sequence (Q1LX78 1-1485): T1 sequence (Q1LX78 1-1485)

[3] = target: T1, WT-zCFTR (codon optimized zebrafish CFTR); settings: 50 μM P-ATP relative to 2 mM ATP, PKA-phosphorylated channel, pH 7.4

| Structure (SMILES) | inhibition ratio at 10 μM [1] | inhibition ratio at 10 μM [2] | IP-ATP/IATP [3] |
| --- | --- | --- | --- |
| O=C(O)c1ccc(/C=C2\SC(=S)N(c3cccc(C(F)(F)F)c3)C2=O)cc1 [CFTRinh-172] | 0.27 ± 0.03 | 0.30 ± 0.04 | – |
| O=P(O)(O)OP(=O)(O)OP(=O)(O)OC[C@H]1O[C@@H](n2cnc3c(NCCc4ccccc4)ncnc32)[C@H](O)[C@@H]1O [N6‐Phenylethyl‐ATP] | – | – | 0.88 ± 0.04 |
